Two compounds from patent US9937235B2, “Lipidated peptides as anti-obesity agents” (USTAV ORGANICKE CHEMIE A BIOCHEMIE AKADEMIE VED CR, V.V.I, priority 2012, dated 2018) can be followed below.

Where a SMILES comes first, the peptide text is derived from it. [ ]: non-standard residue; d: D form. The star is where a group is joined. Palmitoyl = CCCCCCCCCCCCCCCC(=O)*; Myristoyl = CCCCCCCCCCCCCC(=O)*; Nle = CCCC[C@H](N)C(=O)O; Dap = NC[C@H](N)C(=O)O

Assay [1] concerns the target T1, rat PrRP receptor (GPR10) in RC-4B/C cells (Rattus norvegicus, UniProt Q64121).
T1 construct: host or cells: RC-4B/C rat pituitary cell line
T1 sequence (Q64121 1-370): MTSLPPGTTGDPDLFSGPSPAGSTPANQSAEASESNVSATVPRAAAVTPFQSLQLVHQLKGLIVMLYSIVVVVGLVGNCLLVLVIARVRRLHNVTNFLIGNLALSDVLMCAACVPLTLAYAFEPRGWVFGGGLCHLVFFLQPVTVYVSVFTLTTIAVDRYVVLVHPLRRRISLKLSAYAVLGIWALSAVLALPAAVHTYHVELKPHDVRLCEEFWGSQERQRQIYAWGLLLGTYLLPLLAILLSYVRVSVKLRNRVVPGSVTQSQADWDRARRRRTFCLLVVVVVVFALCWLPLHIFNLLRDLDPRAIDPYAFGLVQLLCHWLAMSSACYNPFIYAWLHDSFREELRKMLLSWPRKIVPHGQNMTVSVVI
Nature of the assay: Competitive binding to rat pituitary RC-4B/C cells. The conditions noted are these: ^125I-rat PrRP31, RC-4B/C cells.

For assay [2], the system named is MAPK/ERK1/2 signaling pathway in RC-4B/C cells. Put plainly: MAPK/ERK1/2 signaling in RC-4B/C cells (Western blot). The assay is classed as cell-based, rat. As to conditions: 10^−6 mol·l^−1, 5 minute incubation. For orientation: In western blotting, separated proteins are transferred to a membrane and probed.
Assay [3] relates to fasted C57BL/6 mice. Nature of the assay: Food intake in fasted mice after SC administration. The conditions noted are these: for food intake in fasted mice (in words): SC (peripheral) administration; for food intake / % control: SC administration; for % control: food intake vs saline. The format is in vivo, mouse. The procedure, abridged:
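Male C57BL/6 mice, food-deprived 17 h, received saline, PrRP or lipidated analogs either SC at 1-10 mg/kg or ICV into the third ventricle at 4 nmol/mouse.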

Consider `CCCCCCCCCCCCCC(=O)NC[C@H](N)C(=O)N[C@@H](CCCNC(=N)N)C(=O)N[C@@H](C)C(=O)N[C@@H](Cc1c[nH]cn1)C(=O)N[C@@H](CCC(N)=O)C(=O)N[C@@H](Cc1c[nH]cn1)C(=O)N[C@@H](CO)C(=O)N[C@@H](CCCC)C(=O)N[C@@H](CCC(=O)O)C(=O)N[C@H](C(=O)N[C@@H](CCCNC(=N)N)C(=O)N[C@H](C(=O)N1CCC[C@H]1C(=O)N[C@@H](CC(=O)O)C(=O)N[C@H](C(=O)N[C@@H](CC(N)=O)C(=O)N1CCC[C@H]1C(=O)N[C@@H](C)C(=O)N[C@@H](Cc1c[nH]c2ccccc12)C(=O)N[C@@H](Cc1ccc(O)cc1)C(=O)N[C@H](C(=O)NCC(=O)N[C@@H](CCCNC(=N)N)C(=O)NCC(=O)N[C@H](C(=O)N[C@@H](CCCNC(=N)N)C(=O)N1CCC[C@H]1C(=O)N[C@H](C(=O)NCC(=O)N[C@@H](CCCNC(=N)N)C(=O)N[C@@H](Cc1ccccc1)C(N)=O)C(C)C)[C@@H](C)CC)[C@@H](C)O)[C@@H](C)CC)[C@@H](C)O)[C@@H](C)O` [Analog 5] (H-[Dap](Myristoyl)RAHQHS[Nle]ETRTPDINPAWYTGRGIRPVGRF-NH2), for which the “% of PrRP31 binding” value in assay [1] was found to be 601%. In addition, the ERK signaling entry in assay [2] is recorded as “agonist”. Moreover, the “food intake in fasted mice (in words)” value in assay [3] is “significantly decreased food intake”. For the same compound, the “dose dependence of the lowering of food intake” value in assay [3] (SC administration, 1, 2, 5 and 10 mg/kg, FIG. 5 and 6) is “dose dependent”. Also, the “food intake” value in assay [3] (45 minutes, 10 mg/kg) turned out to be 0.05 g; in assay [3] (300 minutes, 10 mg/kg), 0.18 g. Besides, the “% control” value in assay [3] (45 minutes, 10 mg/kg) came out at 25%; in assay [3] (300 minutes, 10 mg/kg), 21%.

Regarding `CCCCCCCCCCCCCCCC(=O)NC[C@H](N)C(=O)N[C@@H](CCCNC(=N)N)C(=O)N[C@@H](C)C(=O)N[C@@H](Cc1c[nH]cn1)C(=O)N[C@@H](CCC(N)=O)C(=O)N[C@@H](Cc1c[nH]cn1)C(=O)N[C@@H](CO)C(=O)N[C@@H](CCCC)C(=O)N[C@@H](CCC(=O)O)C(=O)N[C@H](C(=O)N[C@@H](CCCNC(=N)N)C(=O)N[C@H](C(=O)N1CCC[C@H]1C(=O)N[C@@H](CC(=O)O)C(=O)N[C@H](C(=O)N[C@@H](CC(N)=O)C(=O)N1CCC[C@H]1C(=O)N[C@@H](C)C(=O)N[C@@H](Cc1c[nH]c2ccccc12)C(=O)N[C@@H](Cc1ccc(O)cc1)C(=O)N[C@H](C(=O)NCC(=O)N[C@@H](CCCNC(=N)N)C(=O)NCC(=O)N[C@H](C(=O)N[C@@H](CCCNC(=N)N)C(=O)N1CCC[C@H]1C(=O)N[C@H](C(=O)NCC(=O)N[C@@H](CCCNC(=N)N)C(=O)N[C@@H](Cc1ccccc1)C(N)=O)C(C)C)[C@@H](C)CC)[C@@H](C)O)[C@@H](C)CC)[C@@H](C)O)[C@@H](C)O` [Analog 6] (H-[Dap](Palmitoyl)RAHQHS[Nle]ETRTPDINPAWYTGRGIRPVGRF-NH2), the “% of PrRP31 binding” value in assay [1] is listed as 1072%. The ERK signaling result in assay [2] is on record as “agonist”. Also, the “food intake in fasted mice (in words)” value in assay [3] is on record as “significantly decreased food intake”. In addition, in assay [3] (45 minutes, 5 mg/kg), the “food intake” value is given as 0 g and the “% control” value is listed as 0%. Moreover, in assay [3] (300 minutes, 5 mg/kg), the “food intake” value turned out to be 0.14 g and the “% control” value was found to be 14%.
